Data reported in patent US6737383B1, “Herbicidal oxadiazolidines” (priority 1999, dated 2004).

Key:
[1] = system: cocklebur; experiment: Test B pre/postemergence cocklebur; assay type: in vivo, Xanthium strumarium
Method in brief: (§1)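 Herbicidal effect was estimated by eye on a ten-point control scale after plants spent twelve to sixteen days in a greenhouse following soil or foliar treatment. Foliar sprays targeted plants at one to four leaves; all doses were formulated in a non-phytotoxic solvent with surfactant.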

[2] = system: pigweed; experiment: Test B pre/postemergence pigweed; assay type: in vivo, Amaranthus retroflexus
Method in brief: as §1

[3] = system: sugar beet; experiment: Test B pre/postemergence sugar beet; assay type: in vivo, Beta vulgaris
Method in brief: as §1

[4] = system: bamyardgrass; experiment: Test B flood test barnyardgrass; assay type: in vivo, Echinochloa crus-galli
Method in brief: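 Flood test on plants grown to the 2-leaf stage; treated plants kept in greenhouse twelve to sixteen days, then visually rated against controls on a 0 (no effect) to 10 (complete control) scale.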

[5] = Postemergence, Rate 250 g/ha, scale 0 to 10, 0 no effect, 10 complete control
[6] = Postemergence, Rate 1000 g/ha, scale 0 to 10 (0 no effect, 10 complete control)
[7] = Preemergence, Rate 125 g/ha, scale 0 to 10 (0 no effect, 10 complete control)
[8] = Preemergence, Rate 250 g/ha, scale of 0 to 10 where 0 is no effect and 10 is complete control
[9] = Preemergence, Rate 500 g/ha, scale 0 (no effect) to 10 (complete control)
[10] = Rate 125 g/ha, Postemergence, scale 0 to 10, 0 no effect, 10 complete control
[11] = Rate 500 g/ha, Postemergence, 0 to 10 scale (0 no effect, 10 complete control)
[12] = Rate 1000 g/ha, Preemergence, scale 0 to 10 (0 no effect, 10 complete control)
[13] = Rate 125 g/ha, Postemergence section (flood test species), scale 0 to 10, 0 no effect, 10 complete control
[14] = Rate 500 g/ha, Postemergence section of Table B, 0 to 10 scale (0 no effect, 10 complete control)
[15] = flood test, listed under Postemergence, Rate 250 g/ha, scale 0 to 10, 0 no effect, 10 complete control
[16] = Postemergence, Rate 62 g/ha, scale 0 to 10, 0 is no effect, 10 is complete control
[17] = Preemergence, Rate 62 g/ha, scale 0 to 10, 0 is no effect, 10 is complete control
[18] = Rate 31 g/ha, Postemergence section (flood test species), scale 0 to 10
[19] = Preemergence, Rate 31 g/ha, visual rating, scale 0 to 10 (0 no effect, 10 complete control)
[20] = Rate 31 g/ha, Postemergence, scale 0 to 10

| Structure (SMILES) | Cocklebur plant response rating [1, 5] | Plant response rating, Cocklebur [1, 7] | Plant response rating, Cocklebur [1, 8] | Cocklebur plant response rating [1, 10] | Redroot pigweed plant response rating [2, 5] | Plant response rating, Redroot pigweed [2, 7] | Plant response rating, Redroot pigweed [2, 8] | Redroot pigweed plant response rating [2, 10] | Sugarbeets plant response rating [3, 5] | Plant response rating, Sugarbeets [3, 7] | Plant response rating, Sugarbeets [3, 8] | Sugarbeets plant response rating [3, 10] | Barnyardgrass plant response rating [4, 13] | Barnyardgrass plant response rating [4, 15] | Cocklebur plant response rating [1, 16] | Plant response rating, Cocklebur [1, 17] | Redroot pigweed plant response rating [2, 16] | Plant response rating, Redroot pigweed [2, 17] | Sugarbeets plant response rating [3, 16] | Plant response rating, Sugarbeets [3, 17] | further results |
| --- | --- | --- | --- | --- | --- | --- | --- | --- | --- | --- | --- | --- | --- | --- | --- | --- | --- | --- | --- | --- | --- |
| CCN(CC)C(=O)n1oc(=O)n(-c2ccc(F)cc2)c1=O [Compound 3] | 0 | 0 | 0 | 0 | 0 | 0 | 0 | 0 | 0 | 0 | 0 | 0 | 0 | 0 | – | – | – | – | – | – | Cocklebur plant response rating [1, 6]: 2; Cocklebur plant response rating [1, 9]: 0; Cocklebur plant response rating [1, 11]: 0; Plant response rating, Cocklebur [1, 12]: 0; Redroot pigweed plant response rating [2, 6]: 0; Redroot pigweed plant response rating [2, 9]: 0; Redroot pigweed plant response rating [2, 11]: 0; Plant response rating, Redroot pigweed [2, 12]: 0; Sugarbeets plant response rating [3, 6]: 0; Sugarbeets plant response rating [3, 9]: 0; Plant response rating, Sugarbeets [3, 12]: 0; Barnyardgrass plant response rating [4, 6]: 0; Barnyardgrass plant response rating [4, 14]: 0 |
| COc1ccc(-n2c(=O)on(C(=O)N(c3ccc(F)cc3)C(C)C)c2=O)cc1 [Compound 5] | 5 | 0 | 0 | 5 | 7 | 6 | 7 | 7 | 4 | 0 | 0 | 3 | 0 | 0 | – | – | – | – | – | – | Cocklebur plant response rating [1, 6]: 8; Cocklebur plant response rating [1, 9]: 0; Cocklebur plant response rating [1, 11]: 5; Plant response rating, Cocklebur [1, 12]: 0; Redroot pigweed plant response rating [2, 6]: 8; Redroot pigweed plant response rating [2, 9]: 7; Redroot pigweed plant response rating [2, 11]: 7; Plant response rating, Redroot pigweed [2, 12]: 10; Sugarbeets plant response rating [3, 6]: 7; Sugarbeets plant response rating [3, 9]: 0; Plant response rating, Sugarbeets [3, 12]: 0; Barnyardgrass plant response rating [4, 6]: 4; Barnyardgrass plant response rating [4, 14]: 2 |
| CC(C)N(C(=O)n1oc(=O)n(-c2ccccc2OC(F)(F)F)c1=O)c1ccc(F)cc1 [Compound 14] | 0 | 0 | 0 | 0 | 3 | 0 | 0 | 2 | 0 | 0 | 0 | 0 | 0 | 0 | 0 | 0 | 0 | 0 | 0 | 0 | Cocklebur plant response rating [1, 9]: 0; Cocklebur plant response rating [1, 11]: 0; Redroot pigweed plant response rating [2, 9]: 6; Redroot pigweed plant response rating [2, 11]: 6; Sugarbeets plant response rating [3, 9]: 0; Barnyardgrass plant response rating [4, 16]: 0; Barnyardgrass plant response rating [4, 18]: 0 |
| CC(C)N(C(=O)n1oc(=O)n(-c2ccc(F)cc2F)c1=O)c1ccc(F)cc1F [Compound 22] | 0 | 0 | 0 | 0 | 2 | 2 | 5 | 1 | 0 | 4 | 7 | 0 | 0 | 0 | 0 | 0 | 0 | 0 | 0 | 0 | Cocklebur plant response rating [1, 19]: 0; Cocklebur plant response rating [1, 20]: 0; Redroot pigweed plant response rating [2, 19]: 0; Redroot pigweed plant response rating [2, 20]: 0; Sugarbeets plant response rating [3, 19]: 0; Barnyardgrass plant response rating [4, 16]: 0; Barnyardgrass plant response rating [4, 18]: 0 |
| CCN(C(=O)n1oc(=O)n(-c2ccc(F)cc2F)c1=O)C1CCCCC1 [Compound 23] | 0 | 0 | – | 0 | 0 | 0 | 0 | 0 | 0 | 0 | 0 | 0 | 0 | 0 | 0 | 0 | 0 | 0 | 0 | 0 | Cocklebur plant response rating [1, 19]: 0; Cocklebur plant response rating [1, 20]: 0; Redroot pigweed plant response rating [2, 19]: 0; Redroot pigweed plant response rating [2, 20]: 0; Sugarbeets plant response rating [3, 19]: 0; Barnyardgrass plant response rating [4, 16]: 0; Barnyardgrass plant response rating [4, 18]: 0 |
| Cc1ccc(-n2c(=O)on(C(=O)N(c3ccc(F)cc3F)C(C)C)c2=O)c(C)c1 [Compound 24] | 1 | 0 | 0 | 0 | 6 | 6 | 6 | 2 | 0 | 3 | 4 | 0 | 0 | 0 | 0 | 0 | 0 | 2 | 0 | 0 | Cocklebur plant response rating [1, 11]: 2; Redroot pigweed plant response rating [2, 9]: 9; Redroot pigweed plant response rating [2, 11]: 6; Sugarbeets plant response rating [3, 9]: 9; Barnyardgrass plant response rating [4, 16]: 0; Barnyardgrass plant response rating [4, 14]: 8 |
| COc1ccc(-n2c(=O)on(C(=O)N(c3ccc(F)cc3)C(C)C)c2=O)c(OC)c1 [Compound 33] | 6 | 0 | 0 | 0 | 3 | 0 | 0 | 2 | 6 | 0 | 0 | 2 | 0 | 3 | 0 | 0 | 0 | 0 | 0 | 0 | Cocklebur plant response rating [1, 19]: 0; Cocklebur plant response rating [1, 20]: 0; Redroot pigweed plant response rating [2, 19]: 0; Redroot pigweed plant response rating [2, 20]: 0; Sugarbeets plant response rating [3, 19]: 0; Barnyardgrass plant response rating [4, 16]: 0; Barnyardgrass plant response rating [4, 14]: 6 |
